Our source for the TGI and GI50 values is PubChem BioAssay (NCI).

Test systems include HL-60(TB) leukemia; SF-295 CNS; NCI-H522 lung; SK-MEL-28 melanoma; EKVX NSCLC; SR leukemia; A549 NSCLC; HOP-92 NSCLC; 786-0 renal; HCT-116 colon.
Test in all cases: NCI tumour cell line growth inhibition, 48 h

“And” between values parts separate entries of the source, which are not always exact repeats. Identical values can stand only once.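 Test compounds were applied to cells in 96-well plates for 48 hours at 5 doses. GI50 marks 50% less growth. TGI: concentration producing complete growth inhibition.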

In the case of `COC(=O)CCC(=O)N1CC1C` (stereo unspecified), the TGI in the assay with HL-60(TB) leukemia, in the assay on SF-295 CNS, with NCI-H522 lung, in the assay with SK-MEL-28 melanoma, in the assay with EKVX NSCLC and in the assay with SR leukemia was > 100 µM in each case. Besides, the TGI in the assay with A549 NSCLC, with HOP-92 NSCLC, with 786-0 renal and with HCT-116 colon was > 100 µM in each case.

For `COc1ccc2c(c1)[n+](=O)c(C(=O)CC(=O)C(=O)Nc1cccc(C)c1C)c(C)n2[O-]`, the TGI in the assay with HL-60(TB) leukemia, with SF-295 CNS, in the assay on NCI-H522 lung, with SK-MEL-28 melanoma, in the assay on EKVX NSCLC and in the assay with SR leukemia was > 100 µM each time. The TGI with A549 NSCLC, in the assay with HOP-92 NSCLC, in the assay on 786-0 renal and in the assay on HCT-116 colon was > 100 µM throughout.

With `CC(C)C(=S)N(C)O`, the TGI in the assay on HL-60(TB) leukemia was > 24.2 µM; in the assay with SF-295 CNS, > 100 µM; in the assay on NCI-H522 lung, > 27.2 µM; with SK-MEL-28 melanoma, > 100 µM; in the assay with EKVX NSCLC, > 100 µM; in the assay with SR leukemia it was > 100 µM. For the same compound, the TGI with A549 NSCLC is > 100 µM; in the assay with HOP-92 NSCLC, > 100 µM; in the assay on 786-0 renal, > 100 µM; with HCT-116 colon it was 19.9 µM.

Take `C/C(=N\NC(N)=S)c1sc(-n2nc(-c3ccccc3)cc2-c2ccccc2)nc1C`: the TGI with HL-60(TB) leukemia, with SF-295 CNS, in the assay with NCI-H522 lung, in the assay on SK-MEL-28 melanoma, in the assay on EKVX NSCLC and in the assay with SR leukemia was > 100 µM each time. Besides, the TGI in the assay with A549 NSCLC, with HOP-92 NSCLC, in the assay on 786-0 renal and in the assay with HCT-116 colon was > 100 µM throughout.

For the compound `O=C1C=C(Nc2ccc(S(=O)(=O)Nc3ncccn3)cc2)c2ccccc2C1=O`, the TGI in the assay with HL-60(TB) leukemia was 72.7 µM; in the assay on SF-295 CNS, 35 µM; in the assay with NCI-H522 lung, 32 µM; in the assay with SK-MEL-28 melanoma it was 60.6 µM; with EKVX NSCLC, 67.1 µM; in the assay with SR leukemia it was 95.9 µM. For the same compound, the TGI with A549 NSCLC was 57.9 µM; with HOP-92 NSCLC it was 94 µM; with 786-0 renal it was 45.6 µM; with HCT-116 colon it was 35.9 µM.

As for `Oc1c(O)c(Cl)c(Cl)c(Cl)c1Cl`, the GI50 is 1850 nM in the assay with HL-60(TB) leukemia; 3.23 µM in the assay with SF-295 CNS; 1650 nM in the assay on NCI-H522 lung; 4990 nM in the assay on SK-MEL-28 melanoma; 2950 nM with EKVX NSCLC; 2730 nM with SR leukemia. Also, the GI50 in the assay on A549 NSCLC is 4.2 µM; in the assay with HOP-92 NSCLC, 2110 nM; in the assay on 786-0 renal it was 7980 nM; in the assay with HCT-116 colon, 2880 nM. Further, the TGI was 7.21 µM in the assay on HL-60(TB) leukemia; 12.7 µM with SF-295 CNS; 4.54 µM with NCI-H522 lung; 37.2 µM in the assay with SK-MEL-28 melanoma; 18.9 µM in the assay with EKVX NSCLC; > 100 µM in the assay on SR leukemia. The TGI turned out to be 24.1 µM with A549 NSCLC, 7.37 µM in the assay with HOP-92 NSCLC, 33 µM in the assay on 786-0 renal and 8.75 µM in the assay on HCT-116 colon.

As to `CCC[CH2][Sn]([CH2]CCC)([O]C(=O)c1cccc(F)c1F)[O]C(=O)c1cccc(F)c1F`, the GI50 in the assay on HL-60(TB) leukemia is 420 nM; in the assay on SF-295 CNS it was 1.52 µM; in the assay with NCI-H522 lung, 133 nM; in the assay on SK-MEL-28 melanoma, 933 nM; with EKVX NSCLC, 1410 nM; in the assay on SR leukemia, 371 nM. Also, the GI50 was 5.37 µM in the assay with A549 NSCLC, 1300 nM with HOP-92 NSCLC, 1050 nM in the assay with 786-0 renal and 1200 nM in the assay with HCT-116 colon. Moreover, the TGI in the assay on HL-60(TB) leukemia came out at 2.4 µM; in the assay on SF-295 CNS, 2.85 µM; in the assay on NCI-H522 lung, 0.277 µM; with SK-MEL-28 melanoma it was 2.13 µM; in the assay on EKVX NSCLC it was 2.71 µM; with SR leukemia, 3.49 µM. Also, the TGI with A549 NSCLC was 17.5 µM; in the assay on HOP-92 NSCLC, 2.57 µM; with 786-0 renal, 2.22 µM; with HCT-116 colon, 2.43 µM.

As to `CCOC(=O)C#Cc1c(C(=O)OCC)nnn1[C@@H]1O[C@H](CO)[C@H]2OC3(CCCCC3)O[C@H]21`, the GI50 in the assay with HL-60(TB) leukemia is 1870 nM; in the assay with SF-295 CNS it was 20.9 µM; in the assay with NCI-H522 lung, 1960 nM; in the assay on SK-MEL-28 melanoma, 2060 nM; with EKVX NSCLC, 15600 nM; with SR leukemia, 1630 nM. The GI50 was 19.9 µM in the assay with A549 NSCLC, 2230 nM in the assay on HOP-92 NSCLC, 2880 nM in the assay on 786-0 renal and 1920 nM in the assay with HCT-116 colon. Moreover, the TGI is 5.88 µM in the assay with HL-60(TB) leukemia; 45.3 µM with SF-295 CNS; 4.09 µM in the assay on NCI-H522 lung; 4.51 µM in the assay on SK-MEL-28 melanoma; 30.1 µM in the assay with EKVX NSCLC; 4.64 µM in the assay with SR leukemia. Moreover, the TGI worked out at 35.8 µM in the assay with A549 NSCLC, 5.27 µM with HOP-92 NSCLC, 8.62 µM with 786-0 renal and 3.48 µM in the assay on HCT-116 colon.

For the compound `O=C(Oc1ccccc1)C(Br)C(Br)c1ccccc1` (stereo unspecified), the GI50 in the assay with HL-60(TB) leukemia is 3130 nM; in the assay on SF-295 CNS it was 4.88 µM; in the assay on NCI-H522 lung it was 1690 nM; in the assay on SK-MEL-28 melanoma, 2640 nM; with EKVX NSCLC, 11900 nM; with SR leukemia it was 1930 nM. In addition, the GI50 was 18 µM in the assay on A549 NSCLC, 2730 nM in the assay on HOP-92 NSCLC, 4590 nM in the assay with 786-0 renal and 1800 nM with HCT-116 colon. Also, the TGI in the assay on HL-60(TB) leukemia was 15.9 µM; in the assay on SF-295 CNS, 18.3 µM; with NCI-H522 lung, 3.39 µM; in the assay on SK-MEL-28 melanoma it was 7.11 µM; with EKVX NSCLC, 24.8 µM; in the assay on SR leukemia, 5.5 µM. Besides, the TGI amounted to 38.5 µM in the assay on A549 NSCLC, 7.52 µM with HOP-92 NSCLC, 16.8 µM in the assay with 786-0 renal and 3.54 µM in the assay with HCT-116 colon.

In the case of `C=C1C(=O)O[C@H]2[C@H]1CC/C(COC(=O)NCCc1cccc(OC)c1)=C\CC[C@@]1(C)O[C@@H]21`, the GI50 is 1360 nM with HL-60(TB) leukemia; 7.26 µM in the assay on SF-295 CNS; 1020 nM in the assay with NCI-H522 lung; 1350 nM with SK-MEL-28 melanoma; 1780 nM with EKVX NSCLC; 511 nM in the assay with SR leukemia. Further, the GI50 was 7.28 µM in the assay on A549 NSCLC, 1840 nM with HOP-92 NSCLC, 1370 nM with 786-0 renal and 714 nM in the assay on HCT-116 colon. Besides, the TGI with HL-60(TB) leukemia was 4.34 µM; in the assay with SF-295 CNS, 20.4 µM; in the assay on NCI-H522 lung, 2.69 µM; with SK-MEL-28 melanoma it was 3.3 µM; with EKVX NSCLC, 4.25 µM; in the assay on SR leukemia, 2.86 µM. Also, the TGI is 21.9 µM in the assay with A549 NSCLC, 3.96 µM in the assay on HOP-92 NSCLC, 3.07 µM in the assay with 786-0 renal and 2.08 µM in the assay on HCT-116 colon.

Turning to `O=C(N/C(=C/c1cccc([N+](=O)[O-])c1)c1nc2ccc(Cl)cc2[nH]1)c1ccccc1`, the TGI in the assay on HL-60(TB) leukemia was 20.2 µM; in the assay on SF-295 CNS it was > 100 µM; in the assay on NCI-H522 lung, 39.1 µM; in the assay with SK-MEL-28 melanoma, > 100 µM; with EKVX NSCLC, 25.3 µM; with SR leukemia it was 41.3 µM. The TGI was > 100 µM in the assay on A549 NSCLC, 78.4 µM in the assay with HOP-92 NSCLC, > 100 µM with 786-0 renal and 25.8 µM with HCT-116 colon.

On to `CCn1c(=N)sc2nc3ccccc3n2c1=O`, for which the TGI with HL-60(TB) leukemia, in the assay on SF-295 CNS, in the assay on NCI-H522 lung, with SK-MEL-28 melanoma, in the assay with EKVX NSCLC and in the assay on SR leukemia was > 100 µM each time. The TGI with A549 NSCLC, in the assay with HOP-92 NSCLC, with 786-0 renal and with HCT-116 colon was > 100 µM each time.

On to `NC(CSC(c1ccccc1)(c1ccccc1)c1ccc(F)cc1)C(=O)O` (stereo unspecified), for which the GI50 in the assay with HL-60(TB) leukemia is 268 nM; with SF-295 CNS, 0.346 µM; with NCI-H522 lung it was 300 nM; in the assay with SK-MEL-28 melanoma, 6040 nM; with EKVX NSCLC it was 525 nM; in the assay with SR leukemia, 253 nM. In addition, the GI50 is 0.35 µM in the assay on A549 NSCLC, 701 nM with HOP-92 NSCLC, 2920 nM with 786-0 renal and 381 nM in the assay on HCT-116 colon. Besides, the TGI in the assay with HL-60(TB) leukemia is 2.47 µM; in the assay on SF-295 CNS, 13 µM; with NCI-H522 lung it was 0.704 µM; in the assay on SK-MEL-28 melanoma, > 100 µM; with EKVX NSCLC, > 74.2 µM; in the assay on SR leukemia, 2.93 µM. Further, the TGI with A549 NSCLC is > 31.7 µM; in the assay with HOP-92 NSCLC, 29.3 µM; in the assay with 786-0 renal, > 78.9 µM; in the assay on HCT-116 colon, > 34.6 µM.

Turning to `COC(=O)CC(C(C(C)=O)C(=O)OCc1ccccc1)N1C(=O)OC(c2ccccc2)C1c1ccccc1` (stereo unspecified), the TGI was > 100 µM in the assay on HL-60(TB) leukemia; 75.4 µM and > 100 µM in the assay with SF-295 CNS; 65.8 µM and > 100 µM in the assay on NCI-H522 lung; > 100 µM in the assay with SK-MEL-28 melanoma; > 100 µM in the assay on EKVX NSCLC; > 100 µM in the assay on SR leukemia. Also, the TGI in the assay on A549 NSCLC, in the assay on HOP-92 NSCLC, in the assay with 786-0 renal and in the assay on HCT-116 colon was > 100 µM in each case. Also, in the assay on HOP-92 NSCLC, the GI50 is 84500 nM and 39800 nM.
